Here are results for 1 compound from patent publication US20110071124A1, “Compounds that Inhibit Production of sAPPB and AB and Uses Thereof” (The Trustees of Columbia University in the City of New York, priority 2008, published 2011).

The experiment concerns brain total Aβ40. As to the kind of experiment: brain total Aβ40 in Tg2576 mice after intraperitoneal injection. Conditions: 3 mg/kg intraperitoneal, 1 injection per day for 9 days, 12- to 13-month old Tg2576 mice; p value greater than 0.05. It is filed as in vivo. How it is done:
FIG. 18. CNS-2 reduces brain total Aβ40 in Tg2576 mice. CNS-2 was dissolved in 0.9% normal saline solution with 1.9% DMSO. 12 month old Tg2576 APPsw transgenic mice were treated with 3 mg/kg CNS-2 via intraperitoneal injection at an injection volume of 20 μl per gram. 8 mice per group were treated for 9 days, 1 injection per day. Mice were sacrificed on day 9, 5 hours after the final injection. One hemisphere from each mouse was homogenized, and the homogenate was processed for formic acid extraction of plaque Aβ. After formic acid extraction, total Aβ40 was measured via ELISA kit (BioSource) and normalized to total protein.
A total of 16 mice were treated with either DMSO (n=8) or 3 mg/kg CNS-2 (n=8). The dosage was selected arbitrarily based on compound solubility in 0.9% normal saline. CNS-2 was dissolved in 0.9% normal saline solution with 1.9% final DMSO concentration. 12- to 13-month old Tg2576 mice were treated with DMSO or CNS-2 via intraperitoneal injection for 9 days (1 injection per day) at an injection volume of 20 μl per gram of weight. Mouse weight was monitored daily, and the total injection volume adjusted accordingly over the course of the 9-day treatment. […] Mice were sacrificed on day 9, 5 hours after the final injection. […] Total Aβ40 was determined by Aβ ELISA kit and normalized to total protein (FIG. 18).

With `O=C(CCc1ccccc1)NC[C@@H]1CCCN1CCOC(c1ccc(F)cc1)c1ccc(F)cc1` [CNS-2], the “reduction of brain total Aβ40” value is listed as 30%.
